Data: PubChem BioAssay (NCI)
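48-hour exposure; five concentrations; linearly interpolated endpoints. The concentration for full growth arrest is given as TGI.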

Tests used:
Assay in all cases: NCI-60 cell line screen, 48 h
CAKI-1 renal = tested on: CAKI-1 renal
DU-145 prostate = tested on: DU-145 prostate
HCT-116 colon = tested on: HCT-116 colon
HT29 colon = tested on: HT29 colon
IGROV1 ovarian = tested on: IGROV1 ovarian
LOX IMVI melanoma = tested on: LOX IMVI melanoma
MCF7 breast = tested on: MCF7 breast
MDA-MB-231 breast = tested on: MDA-MB-231 breast
NCI-H226 lung = tested on: NCI-H226 lung
NCI-H460 lung = tested on: NCI-H460 lung
OVCAR-8 ovarian = tested on: OVCAR-8 ovarian
PC-3 prostate = tested on: PC-3 prostate
SF-268 CNS = tested on: SF-268 CNS
SK-OV-3 ovarian = tested on: SK-OV-3 ovarian
SNB-19 CNS = tested on: SNB-19 CNS
SNB-75 CNS = tested on: SNB-75 CNS
SW-620 colon = tested on: SW-620 colon
T-47D breast = tested on: T-47D breast
TK-10 renal = tested on: TK-10 renal
UACC-257 melanoma = tested on: UACC-257 melanoma

SMILES	TGI (CAKI-1 renal) [µM]	TGI (DU-145 prostate) [µM]	TGI (HCT-116 colon) [µM]	TGI (HT29 colon) [µM]	TGI (IGROV1 ovarian) [µM]	TGI (LOX IMVI melanoma) [µM]	TGI (MCF7 breast) [µM]	TGI (MDA-MB-231 breast) [µM]	TGI (NCI-H226 lung) [µM]	TGI (NCI-H460 lung) [µM]	TGI (OVCAR-8 ovarian) [µM]	TGI (PC-3 prostate) [µM]	TGI (SF-268 CNS) [µM]	TGI (SK-OV-3 ovarian) [µM]	TGI (SNB-19 CNS) [µM]	TGI (SNB-75 CNS) [µM]	TGI (SW-620 colon) [µM]	TGI (T-47D breast) [µM]	TGI (TK-10 renal) [µM]	TGI (UACC-257 melanoma) [µM]
O=C(O)C1(C(=O)O)CC1(C(=O)O)C(=O)O	> 100	> 100	> 100	> 100	> 100	> 100	> 100	> 100	> 100	> 100	> 100	> 100	> 100	> 100	> 100	> 100	> 100	> 100	> 100	> 100
CCCCCC(O)[C@H]1C(=O)C[C@@H](O[Si](C)(C)C(C)(C)C)[C@@H]1/C=C/CCOCc1ccccc1 (stereo partly specified)	29.9	46.4	> 45.5	22.5	25.6	43	> 54.7	61.8	27.5	30.5	28.4	30.9	33.2	31.1	28.5	32.1	41.4	40.1	28.5	26.4
Cc1cccc(N=Nc2c(C)nn(C(=O)CC(=O)Nc3ccccc3)c2C)c1	> 100	> 100	> 100	> 100	> 100	> 100	> 100	> 100	> 100	> 100	> 100	> 100	> 100	> 100	> 100	> 100	> 100	> 100	> 100	–
Oc1c2cc(Br)cc1CCc1cc(Br)cc(c1O)CC2	> 100	> 100	30.1	35.9	> 100	31.3	46.2	41.4	59.5	39.4	> 100	55.8	> 100	76	> 100	88.3	70.5	> 100	89.9	55.6
O=CN1CCN(C(=O)c2cc(Cl)cc(Cl)c2)C1=S	26	37.5	32.7	54.5	34.7	22.3	20.8	33.8	32.7	51.2	33.6	35.8	30.6	32.4	35	27	49.3	36.7	28.7	32.3
O=C(c1cccc(OCc2ccccc2)c1OCc1ccccc1)N1CCSC1=S	> 92.9	> 100	> 100	> 100	> 100	> 100	> 100	> 78.2	> 100	> 100	> 100	> 100	> 52.8	> 100	> 100	34.2	> 100	> 100	> 100	> 87.7
CC(C)[Si](OC1=C(C(=O)Nc2ccccc2Cl)CCCCC1)(C(C)C)C(C)C	> 100	> 100	> 100	> 100	> 100	> 100	> 100	> 100	> 100	> 100	> 100	> 100	> 100	> 100	> 100	> 100	> 100	> 100	> 100	> 100
O=S(=O)(N=S(c1ccc(Cl)cc1)c1ccc(Cl)cc1)c1ccccc1	> 100	> 100	> 100	> 100	> 100	> 100	> 100	> 100	> 100	> 100	> 100	> 100	> 100	> 100	> 100	> 100	> 100	> 100	> 100	> 100
COC(=O)C1=NN2c3ccccc3C(=O)OCCC2(C)C1 (stereo unspecified)	> 100	> 100	> 100	> 100	> 100	> 100	> 100	> 100	> 100	> 100	> 100	> 100	> 100	> 100	–	> 100	> 100	> 100	> 100	–
Cc1ccc(S(=O)(=O)OC2=C/C(=N\c3onc(C)c3C)c3ccccc3C2=O)cc1	37.8	> 100	37.7	> 100	–	37.9	33.5	41.6	> 100	> 100	36.8	40.1	77.5	> 100	64.8	> 100	80.1	64.8	92.7	34.4
